Experimental data taken from ChEMBL document CHEMBL1240356, “Efficacy profiles of daptomycin for treatment of invasive and noninvasive pulmonary infections with Streptococcus pneumoniae” (2010).
Calls of active or inactive are those of the source. The calls are words filed in the database; no cut-off is given here.

What was measured:
Streptococcus pneumoniae [1] = assay: Antibacterial activity against 1.5 x 10^7 CFU Streptococcus pneumoniae serotype 19 infected in therapeutic C57BL/6 mouse model assessed as survival rate at 20 mg/kg, ip qd beginning at time of infection measured after 6 days post infection; type: functional; details: route intraperitoneal
Streptococcus pneumoniae [2] = assay: Antibacterial activity against high dose 1.5 x 10^7 CFU Streptococcus pneumoniae serotype 19 infected in semitherapeutic C57BL/6 mouse model assessed as reduction of bacteremia at 20 mg/kg, ip measured after 2 days post infection; type: functional, organism-based; parameters: dose 20 mg/kg
Streptococcus pneumoniae [3] = assay: Antibacterial activity against high dose 1.5 x 10^7 CFU Streptococcus pneumoniae serotype 19 infected in semitherapeutic C57BL/6 mouse model assessed as reduction of bacteremia at 20 mg/kg, ip measured after 1 day post infection; type: functional, organism-based; parameters: dose 20 mg/kg
Streptococcus pneumoniae [4] = assay: Antibacterial activity against high dose 1.5 x 10^7 CFU Streptococcus pneumoniae serotype 2 infected in therapeutic C57BL/6 mouse model assessed as reduction of bacteremia at 20 mg/kg, ip measured after 4 days post infection; type: functional, organism-based; parameters: dose 20 mg/kg
Streptococcus pneumoniae [5] = assay: Antibacterial activity against 1.5 x 10^7 CFU Streptococcus pneumoniae serotype 2 infected in semitherapeutic C57BL/6 mouse model assessed as reduction of bacteremia at 20 mg/kg, ip measured after 1 day post infection; type: functional, organism-based; parameters: dose 20 mg/kg
Streptococcus pneumoniae [6] = assay: Antibacterial activity against high dose 1.5 x 10^7 CFU Streptococcus pneumoniae serotype 19 infected in semitherapeutic C57BL/6 mouse model assessed as bacterial count in lung at 20 mg/kg, ip measured after 1 day post infection; type: functional; details: route intraperitoneal
Streptococcus pneumoniae [7] = assay: Antibacterial activity against high dose 1.5 x 10^7 CFU Streptococcus pneumoniae serotype 2 infected in semitherapeutic C57BL/6 mouse model assessed as bacterial count in lung at 20 mg/kg, ip measured after 1 day post infection; type: functional; details: route intraperitoneal
Streptococcus pneumoniae [8] = assay: Antibacterial activity against high dose 1.5 x 10^7 CFU Streptococcus pneumoniae serotype 2 infected in therapeutic C57BL/6 mouse model assessed as bacterial count in lung at 20 mg/kg, ip measured after 3 days post infection; type: functional; details: route intraperitoneal
Streptococcus pneumoniae [9] = assay: Antibacterial activity against 1.5 x 10^7 CFU Streptococcus pneumoniae serotype 2 infected in semitherapeutic C57BL/6 mouse model assessed as reduction of bacteremia at 20 mg/kg, ip measured after 2 days post infection; type: functional, organism-based; parameters: dose 20 mg/kg
Streptococcus pneumoniae [10] = assay: Antibacterial activity against high dose 1.5 x 10^7 CFU Streptococcus pneumoniae serotype 2 infected in therapeutic C57BL/6 mouse model assessed as bacterial count in blood at 20 mg/kg, ip measured after 3 days post infection; type: functional; details: route intraperitoneal

CO/N=C(\C(=O)N[C@@H]1C(=O)N2C(C(=O)O)=C(CSc3nc(=O)c(O)nn3C)CS[C@H]12)c1csc(N)n1 [CEFTRIAXONE]
Activity (Streptococcus pneumoniae [1]): 100%
Activity (Streptococcus pneumoniae [2]): Active
Activity (Streptococcus pneumoniae [3]): Active
Activity (Streptococcus pneumoniae [4]): Active
Activity (Streptococcus pneumoniae [5]): Active
log10cfu (Streptococcus pneumoniae [6]): 0.5
log10cfu (Streptococcus pneumoniae [7]): 0.8
log10cfu (Streptococcus pneumoniae [8]): 4.6
Activity (Streptococcus pneumoniae [9]): Active
log10cfu (Streptococcus pneumoniae [10]): 3.3
